Measurements as given in paper PMC10301432, “Antiplasmodial, Trypanocidal, and Genotoxicity In Vitro Assessment of New Hybrid α,α-Difluorophenylacetamide-statin Derivatives” (Pharmaceuticals, 2023).
Where two headings read alike, the source gives them in different places.

Key:
[1] = test system: Salmonella enterica serovar Typhimurium TA100; assay: Salmonella/microsome assay, TA100
in vitro [2] = format: cell-based; conditions: human
Experimental: Human hepatocellular carcinoma (HepG2) and Chinese Hamster Ovary (CHO-K1) cells obtained from the American Type Culture Collection (Manassas, VA, USA) were cultured in Eagle’s medium (MEM, Gibco®, Waltham, MA, USA) containing 10% fetal bovine serum (FBS) plus 100 µg/mL streptomycin and 100 µg/mL penicillin at 37 °C in a 5% CO2 atmosphere. Logarithmic-phase cells were used in all the experiments.
Fresh HepG2 and CHO-K1 cells were seeded at a density of 1 × 10^4/well. […] Briefly, after treatment, the culture medium was replaced by 90 μL fresh culture medium and 10 μL WST-1 reagent and incubated at 37 °C and 5% CO2 for 3 h. The absorbance was then measured at 440 nm according to the kit protocol.

[3] = test system: Salmonella enterica serovar Typhimurium TA104; assay: Salmonella/microsome assay, TA104
Experimental: (§1) Salmonella enterica serovar Typhimurium (S. typhimurium) strains TA97, TA98, TA100, TA104 and TA102 from the authors’ stock were used as described in the mutagenicity assay.
(§2) To determine the cytotoxic effects, after 30 min pre-incubation, the assay mixtures were diluted in 0.9% NaCl (w/v) to obtain a suspension containing 2 × 10^2 cells/mL. […] The plates were then incubated at 37 °C for 24 h and the colonies counted. All the experiments were conducted in triplicate and were repeated at least twice. Statistical differences between the groups were analyzed by a two-way ANOVA (p < 0.05) and Tukey’s post hoc test.

[4] = Salmonella/microsome assay, TA104; conditions: Salmonella enterica serovar Typhimurium, S. typhimurium TA104 with S9 mix, LC50 (bacterial cytotoxicity) TA104, presence of S9 mix
Experimental: as §1, §2

in vitro [5] = format: cell-based; conditions: mouse
Experimental: Primary cultures of cardiac cells (CC) were obtained as reported in [50]. The cultures were sustained in Dulbecco’s modified Eagle’s medium (DMEM) supplemented with 10% horse serum, 5% fetal bovine serum (FBS), 2.5 mM CaCl2, 1 mM L-glutamine, and 2% chicken embryo extract. Cell cultures were maintained at 37 °C in an atmosphere of 5% CO2, and assays were run at least three times in triplicate.
Cardiac cell cultures were incubated for 24 h at 37 °C with different concentrations of the compounds (up to 200 µM) diluted in DMEM (without phenol red). Their morphology and spontaneous contractibility were evaluated by light microscopy and then the cellular viability was determined by the PrestoBlue® assay. For this colorimetric bioassay, PrestoBlue® (Invitrogen, Waltham, MA, USA) was added to each well (using a 10:1 medium/dye), the plate was further incubated for 24 h followed by optical density (OD) measurement performed at 570 and 600 nm, as recommended by the manufacturer.

[6] = test system: Salmonella enterica serovar Typhimurium TA102
[7] = test system: trypomastigote forms of T. cruzi (Y strain); assay: Trypanocidal activity on bloodstream trypomastigotes; format: cell-based, Trypanosoma cruzi; conditions: for SI: LC50 (cardiac cells)/EC50 (trypomastigotes); for EC50: Trypanosoma cruzi, bloodstream trypomastigotes, Y strain, 24 h at 37 °C
Experimental: Bloodstream trypomastigote forms (BT) of the Y strain were obtained from infected albino Swiss mice at the peak of parasitemia, isolated by differential centrifugation and resuspended in DMEM to a parasite concentration of 10^7 cells/mL in the presence of 10% of mouse blood. This suspension (100 µL) was added in the same volume of 13 (a–d) and 14 (a–d) previously prepared at twice the desired final concentrations.

[8] = test system: intracellular forms of T. cruzi (Tulahuen strain transfected with β-galactosidase); assay: Activity against intracellular T. cruzi in L929 cells; format: cell-based, Trypanosoma cruzi; conditions: for SI: LC50 (L929)/EC50 (intracellular forms); for EC50: Trypanosoma cruzi, TULAHUEN, L929, 96 h, intracellular forms, Tulahuen strain, 96 h
Experimental: Tissue culture-derived trypomastigotes (Tulahuen strain expressing the E. coli β-galactosidase gene) were maintained in L929 cell lines and collected from the supernatant after 96 h of parasite infection, following previously established protocols. Briefly, after 24 h of L929 platting (4 × 10^3 cells/well), the cultures were incubated with trypomastigotes (10:1 parasite/host cell ratio) for 2 h at 37 °C. Then, the cell cultures were rinsed to remove non-internalized parasites and then further incubated for 24 h at 37 °C. Then the infected cultures were followed using two sequential protocols. […] After this period, 50 µL chlorophenol red glycoside (500 µM) in 0.5% Nonidet P40 was added to each well and the plate was incubated for more than 18 h at 37 °C, after which the absorbance was measured at 570 nm. […] Controls with untreated and Bz-treated cells are run in parallel. The results were expressed as the percent difference in the reduction between treated and untreated cells.

Structure (SMILES): CC(=O)Nc1ccc(Cl)cc1C(F)(F)C(=O)NCC[C@@H]1C[C@H](CC(=O)OC(C)(C)C)OC(C)(C)O1 [Compound 13c, tert-Butyl 2-((4R,6R)-6-(2-(2-(2-acetamido-5-chlorophenyl)-2,2-difluoroacetamido)ethyl)-2,2-dimethyl-1,3-dioxan-4-yl)acetate]
- revertant His+ colonies TA100 ([1]; +S9, 3 µM): 223 ± 39
- revertant His+ colonies TA100 ([1]; +S9, 15 µM): 223 ± 47
- revertant His+ colonies TA100 ([1]; +S9, 30 µM): 228 ± 17
- revertant His+ colonies TA100 ([1]; +S9, 150 µM): 278 ± 5
- revertant His+ colonies TA100 ([1]; +S9, 300 µM): 286 ± 18
- revertant His+ colonies TA100 ([1]; +S9, 1500 µM): 300 ± 15
- revertant His+ colonies TA100 ([1]; −S9, 3 µM): 135 ± 38
- revertant His+ colonies TA100 ([1]; −S9, 15 µM): 135 ± 21
- revertant His+ colonies TA100 ([1]; −S9, 30 µM): 135 ± 30
- revertant His+ colonies TA100 ([1]; −S9, 150 µM): 140 ± 31
- revertant His+ colonies TA100 ([1]; −S9, 300 µM): 164 ± 17
- revertant His+ colonies TA100 ([1]; −S9, 1500 µM): 168 ± 15
- CC50 at 24 h (in vitro [2]): > 1000 µM
- revertant His+ colonies TA104 ([3]; +S9, 3 µM): 384 ± 34
- revertant His+ colonies TA104 ([3]; +S9, 15 µM): 401 ± 31
- revertant His+ colonies TA104 ([3]; +S9, 30 µM): 445 ± 49
- revertant His+ colonies TA104 ([3]; +S9, 150 µM): 305 ± 7
- revertant His+ colonies TA104 ([3]; +S9, 300 µM): 297 ± 4
- revertant His+ colonies TA104 ([3]; +S9, 1500 µM): Cytotoxic
- CC50 ([3]; read-out: LC50 (bacterial cytotoxicity) TA104, presence of S9 mix): > 1200 µM
- revertant His+ colonies TA104 ([3]; −S9, 3 µM): 195 ± 9
- revertant His+ colonies TA104 ([3]; −S9, 15 µM): 199 ± 7
- revertant His+ colonies TA104 ([3]; −S9, 30 µM): 192 ± 3
- revertant His+ colonies TA104 ([3]; −S9, 150 µM): 201 ± 17
- revertant His+ colonies TA104 ([3]; −S9, 300 µM): 206 ± 8
- revertant His+ colonies TA104 ([3]; −S9, 1500 µM): 241 ± 10
- CC50 at 30 min [4]: 1390 ± 14.8 µM
- CC50 at 24 h (in vitro [5]): > 500 µM
- revertant His+ colonies TA102 ([6]; +S9, 3 µM): 392 ± 8
- revertant His+ colonies TA102 ([6]; +S9, 15 µM): 390 ± 12
- revertant His+ colonies TA102 ([6]; +S9, 30 µM): 402 ± 24
- revertant His+ colonies TA102 ([6]; +S9, 150 µM): 401 ± 66
- revertant His+ colonies TA102 ([6]; +S9, 300 µM): 403 ± 12
- revertant His+ colonies TA102 ([6]; +S9, 1500 µM): 430 ± 14
- revertant His+ colonies TA102 ([6]; −S9, 3 µM): 373 ± 50
- revertant His+ colonies TA102 ([6]; −S9, 15 µM): 386 ± 35
- revertant His+ colonies TA102 ([6]; −S9, 30 µM): 387 ± 33
- revertant His+ colonies TA102 ([6]; −S9, 150 µM): 386 ± 5
- revertant His+ colonies TA102 ([6]; −S9, 300 µM): 400 ± 24
- revertant His+ colonies TA102 ([6]; −S9, 1500 µM): 450 ± 32
- SI [7]: >17.7
- EC50 [7]: 28.2 ± 0.75 µM
- SI [8]: 16.7
- EC50 [8]: 9.24 ± 1.06 µM

Structure (SMILES): CC(=O)Nc1ccc(Br)cc1C(F)(F)C(=O)NCC[C@@H]1C[C@H](CC(=O)OC(C)(C)C)OC(C)(C)O1 [Compound 13d, tert-Butyl 2-((4R,6R)-6-(2-(2-(2-acetamido-5-bromophenyl)-2,2-difluoroacetamido)ethyl)-2,2-dimethyl-1,3-dioxan-4-yl)acetate]
- revertant His+ colonies TA100 ([1]; +S9, 3 µM): 156 ± 18
- revertant His+ colonies TA100 ([1]; +S9, 15 µM): 166 ± 11
- revertant His+ colonies TA100 ([1]; +S9, 30 µM): 173 ± 1
- revertant His+ colonies TA100 ([1]; +S9, 150 µM): 174 ± 21
- revertant His+ colonies TA100 ([1]; +S9, 300 µM): 181 ± 15
- revertant His+ colonies TA100 ([1]; +S9, 1500 µM): Cytotoxic
- revertant His+ colonies TA100 ([1]; −S9, 3 µM): 99 ± 4
- revertant His+ colonies TA100 ([1]; −S9, 15 µM): 96 ± 12
- revertant His+ colonies TA100 ([1]; −S9, 30 µM): 93 ± 1
- revertant His+ colonies TA100 ([1]; −S9, 150 µM): Cytotoxic
- CC50 at 24 h (in vitro [2]): > 1000 µM
- revertant His+ colonies TA104 ([3]; +S9, 3 µM): 490 ± 52
- revertant His+ colonies TA104 ([3]; +S9, 15 µM): 513 ± 19
- revertant His+ colonies TA104 ([3]; +S9, 30 µM): 530 ± 7
- revertant His+ colonies TA104 ([3]; +S9, 150 µM): 541 ± 29
- revertant His+ colonies TA104 ([3]; +S9, 300 µM): 589 ± 5
- revertant His+ colonies TA104 ([3]; +S9, 1500 µM): 591 ± 11
- revertant His+ colonies TA104 ([3]; −S9, 3 µM): 469 ± 65
- revertant His+ colonies TA104 ([3]; −S9, 15 µM): 515 ± 61
- revertant His+ colonies TA104 ([3]; −S9, 30 µM): 570 ± 53
- revertant His+ colonies TA104 ([3]; −S9, 150 µM): 605 ± 61
- revertant His+ colonies TA104 ([3]; −S9, 300 µM): 615 ± 15
- revertant His+ colonies TA104 ([3]; −S9, 1500 µM): 620 ± 31
- CC50 at 24 h (in vitro [5]): > 500 µM
- revertant His+ colonies TA102 ([6]; +S9, 3 µM): 153 ± 13
- revertant His+ colonies TA102 ([6]; +S9, 15 µM): 155 ± 20
- revertant His+ colonies TA102 ([6]; +S9, 30 µM): 160 ± 11
- revertant His+ colonies TA102 ([6]; +S9, 150 µM): 162 ± 31
- revertant His+ colonies TA102 ([6]; +S9, 300 µM): 176 ± 11
- revertant His+ colonies TA102 ([6]; +S9, 1500 µM): Cytotoxic
- revertant His+ colonies TA102 ([6]; −S9, 3 µM): 356 ± 7
- revertant His+ colonies TA102 ([6]; −S9, 15 µM): Cytotoxic
- SI [7]: >21.6
- EC50 [7]: 23.2 ± 3.13 µM
- SI [8]: 10
- EC50 [8]: 11.4 ± 3.29 µM
